Compound	logP
Nc1nc(N)[nH]c(=O)n1	-0.46
CC(C)Nc1nc(N)[nH]c(=O)n1	-0.08
CCNc1nc(NCC)[nH]c(=O)n1	0.35
Nc1nc(N)nc(NC2CC2)n1	0.05
Cc1nnc(-c2ccccc2)c(=O)n1N	0.98
CCNc1nc(N=[N+]=[N-])nc(NC(C)C)n1	2.57
O=c1[nH]c(=O)[nH]c(=O)[nH]1	-0.47
COc1nc(NC(C)C)nc(NC(C)C)n1	2.6
Nc1nc(N)nc(N)n1	-0.4
Nc1nc(N)nc(Cl)n1	0.11
CCNc1nc(NC(C)C)nc(=O)[nH]1	0.76

More lines, now with the values ahead:

logP	Compound
1.93	COc1nc(N)nc(NC(C)(C)C)n1
1.5	CCNc1nc(NC(C)(C)C)nc(=O)[nH]1
1.78	CCC(C)Nc1nc(N)nc(Cl)n1 (centres undefined)
2.12	CCN(CC)c1nc(N)nc(Cl)n1
0.83	CCNc1nc(N)nc(OC)n1
0.43	CC(C)(C)Nc1nc(N)[nH]c(=O)n1
-0.3	CCNc1nc(N)nc(=O)[nH]1
1.87	CNc1nc(NC)nc(NC(C)C)n1

From the SangsterLogP compilation
